Like-named read-outs stand apart in the source and are kept apart here.
What was measured:
[1] = biological target: T1, PDE2 (Homo sapiens, UniProt O00408); assay: Inhibition of PDE2 (radioenzymatic phosphodiesterase assay); assay type: biochemical; settings: for inhibition at 10 µM / PDE2 percentage inhibition at 10 μM: 10 μM compound
T1 construct: PDE2 was isolated from human platelets, provided by Etablissement Français du Sang-Alsace; tissue Etablissement Français du Sang-Alsace; host or cells: human platelets
T1 sequence (O00408 whole entry): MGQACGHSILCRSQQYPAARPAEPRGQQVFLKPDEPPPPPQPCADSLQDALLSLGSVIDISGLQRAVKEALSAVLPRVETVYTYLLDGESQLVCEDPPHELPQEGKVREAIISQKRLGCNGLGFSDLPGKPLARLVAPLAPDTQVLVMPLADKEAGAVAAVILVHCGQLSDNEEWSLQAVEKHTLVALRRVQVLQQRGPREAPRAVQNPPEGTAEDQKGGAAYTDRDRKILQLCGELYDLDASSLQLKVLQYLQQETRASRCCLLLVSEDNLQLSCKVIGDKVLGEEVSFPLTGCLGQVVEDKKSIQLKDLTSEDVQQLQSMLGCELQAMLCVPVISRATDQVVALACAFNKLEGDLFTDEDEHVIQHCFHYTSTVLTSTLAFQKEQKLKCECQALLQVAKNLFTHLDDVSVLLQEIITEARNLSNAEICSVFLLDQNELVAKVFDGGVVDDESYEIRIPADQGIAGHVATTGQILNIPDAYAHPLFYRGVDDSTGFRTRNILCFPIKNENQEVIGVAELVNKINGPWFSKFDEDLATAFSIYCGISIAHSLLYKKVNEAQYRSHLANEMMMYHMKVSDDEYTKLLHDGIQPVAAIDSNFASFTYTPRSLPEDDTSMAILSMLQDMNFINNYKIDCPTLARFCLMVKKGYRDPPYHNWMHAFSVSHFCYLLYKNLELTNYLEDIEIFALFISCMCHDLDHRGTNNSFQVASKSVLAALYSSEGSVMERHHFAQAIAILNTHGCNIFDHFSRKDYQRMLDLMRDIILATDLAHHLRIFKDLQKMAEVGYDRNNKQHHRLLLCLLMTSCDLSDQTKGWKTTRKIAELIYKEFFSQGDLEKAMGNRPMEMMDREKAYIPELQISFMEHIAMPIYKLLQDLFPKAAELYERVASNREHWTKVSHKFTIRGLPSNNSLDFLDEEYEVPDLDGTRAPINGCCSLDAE
Procedure: (§1) 2.1.1. Isolation of Phosphodiesterases from Smooth Muscle A 3 g segment of bovine aortic media cut into pieces with scissors was homogenized with an ultra-turrax then a potter glass/glass homogenizer in 7 volumes by weight of buffer A containing a protease inhibitor cocktail (20 mM Tris-HCl, 0.25 M saccharose, 2 mM magnesium acetate, 1 mM dithiothreitol, 5 mM EGTA, 2000 U/ml aprotinin, 10 mg/l leupeptin and 10 mg/l soya trypsic inhibitor). The homogenizate was centrifuged at 105,000 g for 1 hour. The supernatant was loaded on a DEAE-Sephacel column (15×1.6 cm) pre-equilibrated with buffer B (buffer A without the saccharose, EGTA and protease inhibitors). The column was washed until there was no detectable absorption at 280 nm, then eluted with a linear gradient of NaCl (0-0.5 M) in buffer B. 3-ml fractions were collected and enzyme activity was determined under the conditions described hereinbelow to localize the different enzymes PDE1, PDE3, PDE4 and PDE5 which were aliquoted and frozen at −80° C. (Lugnier et al., Biochem. Phamacol., 1986, 35: 1746-1751). PDE2 was isolated from human platelets, provided by Etablissement Français du Sang-Alsace, according to Kameni Tcheudji J F et al., (J. Mol. Biol. 2001; 310: 181-791), and stored until use at −80° C. in small aliquots.
(§2) Cyclic nucleotide phosphodiesterase activity was determined by a radioenzymatic method using tritium-labelled cyclic GMP or AMP (1 μM) as substrate (Lugnier et al., 1986). ^3H-labelled adenosine or guanosine monophosphate formed by hydrolysis of the radiolabelled cyclic nucleotide was then converted to ^3H-labelled adenosine or guanosine in a second reaction with […] in excess. The nucleoside formed was separated from the nucleotides by anion exchange chromatography. Nucleoside radioactivity was determined by liquid scintillation counting. Enzymatic incubations were carried out under conditions allowing no more than 15% hydrolysis of the substrate; each point was performed in duplicate.
The concentration of substance which inhibits enzymatic activity by 50% (IC50) at 1 μM cyclic AMP was calculated by nonlinear regression from the experimental values of hydrolysis rate (Prism, GraphPad).

[2] = biological target: T2, 5-HT transporter (Homo sapiens, UniProt P31645); assay: Serotonergic transporter binding ([3H]imipramine); settings: [3H]imipramine 2 nM, HEK-293 recombinant, read-out: percentage inhibition at 10 μM of control specific binding to the serotonergic transporter
T2 construct: expressed in transfected cells; host or cells: HEK-293
T2 sequence (P31645 whole entry): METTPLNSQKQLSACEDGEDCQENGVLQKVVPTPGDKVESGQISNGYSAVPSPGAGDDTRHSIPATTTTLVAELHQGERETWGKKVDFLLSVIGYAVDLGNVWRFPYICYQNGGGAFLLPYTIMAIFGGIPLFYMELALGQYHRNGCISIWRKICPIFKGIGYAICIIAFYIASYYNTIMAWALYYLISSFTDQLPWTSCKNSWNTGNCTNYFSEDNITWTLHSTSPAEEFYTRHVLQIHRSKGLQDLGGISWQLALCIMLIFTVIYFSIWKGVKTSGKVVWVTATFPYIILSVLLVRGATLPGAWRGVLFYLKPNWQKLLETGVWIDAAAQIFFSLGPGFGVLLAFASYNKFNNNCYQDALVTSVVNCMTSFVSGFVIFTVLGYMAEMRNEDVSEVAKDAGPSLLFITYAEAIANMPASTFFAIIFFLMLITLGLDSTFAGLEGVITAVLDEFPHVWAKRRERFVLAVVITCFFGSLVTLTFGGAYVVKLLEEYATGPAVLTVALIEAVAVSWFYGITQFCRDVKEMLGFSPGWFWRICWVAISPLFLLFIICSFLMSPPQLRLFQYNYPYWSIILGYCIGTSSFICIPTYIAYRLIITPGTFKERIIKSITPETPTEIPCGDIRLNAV
Procedure: The serotonergic 5-HT transporter was isolated from human recombinant HEK-293 cells according to the method described by Tatsumi et al. (1997), Pharmacological profile of antidepressants and related compounds at human monoamine transporters, Eur. J. Pharmacol., 340: 249-258.
Serotonergic transporter binding was determined by a radioligand method using tritium-labelled imipramine (2 nM) as substrate (Tatsumi et al., 1999). Ligand radioactivity was determined by liquid scintillation counting. Ligand incubations were carried out for thirty minutes at 22° C. The experiment was conducted in duplicate.
The specific ligand binding to the serotonergic transporter was defined as the difference between the total binding and the non specific binding determined in presence of an excess of unlabelled ligand. The results obtained are presented in Table 3 hereinbelow and are expressed as percent of control specific binding and as a percent inhibition of control specific binding obtained in presence of 10 μM of substance.

[3] = tested on: PDE4; assay: Selectivity: inhibition of PDE4 (radioenzymatic assay); assay type: biochemical, bovine; settings: Table 2; for PDE4 percentage inhibition at 10 μM: 10 μM compound
Procedure: as §1, §2
The activity of the compounds was evaluated on other phosphodiesterase isoforms, particularly basal state or calmodulin-activated PDE1 from vascular smooth muscle, PDE3, PDE4 and PDE5 from vascular smooth muscle. The results obtained are presented in Tables 1 and 2 hereinbelow and are expressed as the percentage inhibition of enzymatic activity produced by […] of the test compound.

[4] = tested on: σ receptors; assay: Isolated organ bioassay, field-stimulated vas deferens: test for antagonist activity; design: species or system guinea pig; settings: for Response to (+)SKF-10,047 (1.0 10^−4 M) in the presence of the compound: mean, n=2
Procedure: (§3) Segments of guinea pig vas deferens were suspended in 20-ml organ baths containing an oxygenated (95% O2 and 5% CO2) and pre-warmed (37° C.) physiological salt solution of the following composition (in mM): NaCl 118.0, KCl 4.7, MgSO4 1.2, CaCl2 2.5, KH2PO4 1.2, NaHCO3 25.0 and glucose 11.0 (pH 7.4). Yohimbine (1 μM), (−) sulpiride (1 μM), atropine (1 μM) and naloxone (1 μM) were also present throughout the experiments to block the α2-adrenergic, dopamine D2, muscarinic and opioid receptors, respectively. The tissues were connected to force transducers for isometric tension recordings. They were stretched to a resting tension of 0.5 g, allowed to equilibrate for at least 30 min during which time they were washed repeatedly and the tension readjusted. Thereafter, they were stimulated electrically using a constant current stimulator.
The tissues were exposed to a submaximal concentration of the reference agonist (+) SKF-10047 (100 μM) to obtain a control response. After stabilization of the (+) SKF-10047-induced response, increasing concentrations of substance or the reference antagonist rimcazole were added cumulatively. Each concentration was left in contact with the tissues until a stable response was obtained or for a maximum of 15 min. If it occurred, an inhibition of the (+) SKF-10047-induced increase in twitch contraction amplitude by substance indicated an antagonist activity at the σ receptors.
(§4) The parameter measured was the maximum change in the twitch contraction amplitude induced by each compound concentration. The results are expressed as a percent variation of the control twitch contraction amplitude (mean values). The effects of substance tested at 1.0 10^−6 M, 3.0 10^−6 M and 1.0 10^−5 M for agonist and antagonist activities at the σ receptors in the guinea pig vas deferens bioassay are summarized in Tables 6-7 where those of the reference compounds are also reported.

[5] = tested on: σ receptors; assay: Isolated organ bioassay, field-stimulated vas deferens: test for agonist activity; design: species or system guinea pig
Procedure: as §3
The tissues were exposed to a submaximal concentration of the reference agonist (+) SKF-10047 (100 μM) to verify responsiveness and to obtain a control response. Following washings and recovery of the twitch contraction amplitude, the tissues were exposed to increasing concentrations of substance or the same agonist. The different concentrations were added cumulatively and each was left in contact with the tissues until a stable response was obtained or for a maximum of 15 min. If an agonist-like response (enhancement of twitch contractions) was obtained, the reference antagonist rimcazole (10 μM) was tested against the highest concentration of substance to confirm the involvement of the σ receptors in this response.
as §4

[6] = read-out: PDE2 percentage inhibition at 10 μM, Table 1, 1 μM cyclic AMP
[7] = Table 1, 1 μM cyclic AMP, read-out: PDE2 percentage inhibition at 10 μM
[8] = field-stimulated guinea pig vas deferens

Compound: COc1cc2c(c(OC)c1-c1ccccc1)C(c1cccc(C#N)c1)=NCC(=O)N2 [Compound 1, 3-(6,8-Dimethoxy-2-oxo-7-phenyl-2,3-dihydro-1H-benzo[e][1,4]diazepin-5-yl)-benzonitrile]
- IC50 [1]: 3000 nM
- inhibition at 10 µM [1, 6]: 9%
- inhibition at 10 µM ([1]; read-out: PDE2 percentage inhibition at 10 μM, Table 2): 9%
- inhibition at 10 µM [2]: 5%
- PDE4 percentage inhibition at 10 μM [3]: 43.3%

Compound: COc1cc2c(c(OC)c1-c1ccc(Cl)cc1)C(c1cccc(C#N)c1)=NCC(=O)N2 [Compound 2, 3-[7-(4-Chloro-phenyl)-6,8-dimethoxy-2-oxo-2,3-dihydro-1H-benzo[e][1,4]diazepin-5-yl]-benzonitrile]
- IC50 [1]: 730 nM
- inhibition at 10 µM [1, 7]: 93%
- inhibition at 10 µM [2]: 12%
- PDE4 percentage inhibition at 10 μM [3]: 58%

Compound: COc1cc2c(c(OC)c1-c1ccc(Cl)cc1)C(c1cccc(C#N)c1)=NCC(=O)N2C [Compound 7, 3-[7-(4-Chloro-phenyl)-6,8-dimethoxy-1-methyl-2-oxo-2,3-dihydro-1H-benzo[e][1,4]diazepin-5-yl]-benzonitrile]
- IC50 [1]: 4600 nM
- inhibition at 10 µM [1, 7]: 61%
- inhibition at 10 µM [2]: 16%
- PDE4 percentage inhibition at 10 μM [3]: 41%

Compound: COc1cc2c(c(OC)c1-c1cccnc1)C(c1cccc(C#N)c1)=NCC(=O)N2C [Compound 8, 3-(6,8-Dimethoxy-1-methyl-2-oxo-7-pyridin-3-yl-2,3-dihydro-1H-benzo[e][1,4]diazepin-5-yl)-benzonitrile]
- inhibition at 10 µM [1, 6]: 56%
- inhibition at 10 µM [2]: 8%

Compound: COc1cc2c(c(OC)c1-c1ccccc1)C(c1ccccc1)=NCC(=O)N2C [Compound 9, 6,8-Dimethoxy-1-methyl-5,7-diphenyl-1,3-dihydro-benzo[e][1,4]diazepin-2-one]
- inhibition at 10 µM [1, 7]: 71%
- inhibition at 10 µM [2]: 1%

Compound: COc1cc2c(c(OC)c1-c1ccc(Cl)cc1)C(c1cccc(C(N)=O)c1)=NCC(=O)N2C [Compound 18]
- inhibition at 10 µM [1, 7]: 98%
- IC50 ([1]; Table 1, value in square brackets, 1 μM cyclic AMP, read-out: PDE2 IC50): 300 nM
- inhibition at 10 µM [2]: 0%
- PDE4 percentage inhibition at 10 μM [3]: 66%
- IC50 ([3]; value in square brackets): 6.5 µM

Compound: COc1cc2c(c(OC)c1-c1cccnc1)C(c1cccc(C(N)=O)c1)=NCC(=O)N2 [Compound 20, 3-(6,8-Dimethoxy-2-oxo-7-pyridin-3-yl-2,3-dihydro-1H-benzo[e][1,4]diazepin-5-yl)-benzamide]
- PDE2 percentage inhibition at 10 μM ([1]; Table 1, 1 μM cyclic AMP): 68%
- inhibition at 10 µM [2]: 16%

Compound: COc1cc2c(c(OC)c1-c1ccccc1)C(c1cccc(C(N)=O)c1)=NCC(=O)N2Cc1ccc(C(F)(F)F)cc1 [Compound 25, 3-[6,8-Dimethoxy-2-oxo-7-phenyl-1-(4-trifluoromethyl-benzyl)-2,3-dihydro-1H-benzo[e][1,4]diazepin-5-yl]-benzamide]
- inhibition at 10 µM [1, 6]: 18%

Compound: COc1cc2c(c(OC)c1-c1ccccc1)C(c1cccc(C(N)=O)c1)=NCC(=O)N2CCCc1ccccc1 [Compound 26, 3-[6,8-Dimethoxy-2-oxo-7-phenyl-1-(3-Phenyl-propyl)-2,3-dihydro-1H-benzo[e][1,4]diazepin-5-yl]-benzamide]
- inhibition at 10 µM [1, 6]: 5%

Compound: COCC#Cc1cccc(C2=NCC(=O)N(C)c3cc(OC)c(-c4ccccc4)c(OC)c32)c1 [Compound 27, 6,8-Dimethoxy-5-[3-(3-methoxy-prop-1-ynyl)-phenyl]-1-methyl-7-phenyl-1,3-dihydro-benzo[e][1,4]diazepin-2-one]
- inhibition at 10 µM [1, 6]: 83%

Compound: COc1cc2c(c(OC)c1-c1ccccc1)C(c1cccc(C#CCNC(=O)OC(C)(C)C)c1)=NCC(=O)N2C [Compound 28, {3-[3-(6,8-Dimethoxy-1-methyl-2-oxo-7-phenyl-2,3-dihydro-1H-benzo[e][1,4]diazepin-5-yl)-phenyl]-prop-2-ynyl}-carbamic acid tert-butyl ester]
- inhibition at 10 µM [1, 6]: 43%

Compound: COc1cc2c(c(OC)c1-c1ccccc1)C(c1cccc(C#CCNC(=O)OC(C)(C)C)c1)=NCC(=O)N2C [Compound 30, {3-[3-(6,8-Dimethoxy-1-methyl-2-oxo-7-phenyl-2,3-dihydro-1-benzo[e][1,4]diazepin-5-yl)-phenyl]-prop-2-ynyl}-carbamic acid tert-butyl ester]
- PDE2 percentage inhibition at 10 μM ([1]; Table 1, 1 μM cyclic AMP): 69%

Compound: COc1cc2c(c(OC)c1-c1ccccc1)C(c1cccc(C#CCN)c1)=NCC(=O)N2C [Compound 31, 5-[3-(3-Amino-prop-1-ynyl)-phenyl]6,8-dimethoxy-1-methyl-7-phenyl-1,3-dihydro-benzo[e][1,4]diazepin-2-one]
- inhibition at 10 µM [1, 6]: 42%

Compound: COc1cc2c(c(OC)c1-c1ccccc1)C(c1cccc(CCCN)c1)=NCC(=O)N2C [Compound 32, 5-[3-(3-Amino-propyl)-phenyl]-6,8-dimethoxy-1-methyl-7-phenyl-1,3-dihydro-benzo[e][1,4]diazepin-2-one]
- inhibition at 10 µM [1, 6]: 22%

Compound: C[C@@H]1CN(CCCn2c3ccccc3c3ccccc32)C[C@H](C)N1 [rimcazole]
- Response to (+)SKF-10,047 (1.0 10^−4 M) in the presence of the compound ([4]; compound 1.0 10^−6 M): +111%
- Response to (+)SKF-10,047 (1.0 10^−4 M) in the presence of the compound ([4]; compound 3.0 10^−6 M): +52%
- Effect on the (+) SKF 10,047-induced enhancement of twitch contraction amplitude (in words) [4, 8]: inhibited
- Response to (+)SKF-10,047 (1.0 10^−4 M) in the presence of the compound ([4]; third (highest) concentration, printed 1.0 10^−6 M): −12%

Compound: (+)SKF-10,047
- Response to the compound, variation of twitch contraction amplitude ([5]; 1.0 10^−4 M, mean, n=2): +158%
- Response to the compound, variation of twitch contraction amplitude ([5]; 1.0 10^−5 M, mean, n=2): +40%
- Response to the compound, variation of twitch contraction amplitude ([5]; 3.0 10^−5 M, mean, n=2): +90%
- Effect on twitch contraction amplitude (in words) [5, 8]: concentration-dependent enhancement of the twitch contraction amplitude
- Response to the highest concentration of the compound +Rimcazole (1.0 10^−5 M) ([5]; highest compound concentration plus rimcazole 1.0 10^−5 M, mean, n=2): −8%

Reference: patent US20090215752A1, “Compounds, preparation and therapeutic use thereof” (priority 2005, published 2009)
